Laboratory results from patent publication US9676778B2, “Substituted pyrrolo[2,3-b]pyrazines as JAK3 inhibitors” (PRINCIPIA BIOPHARMA INC., priority 2012, dated 2017).
Values belong to the molecule of their own block, whether it stands above or below them.

Columns and labels:
[1] = system: collagen-induced arthritis; conditions: Milici 2008; cited from earlier work
psoriasis = conditions: short-term study, Boy 2009; cited from earlier work
[2] = system: delayed-type hypersensitivity response; conditions: Kudlacz 2004; cited from earlier work
[3] = system: mixed lymphocyte reaction; conditions: Kudlacz 2004; cited from earlier work
JAK3 = target: T1, JAK3 (Homo sapiens, UniProt P52333); assay: Determination of Drug-Kinase Residence Time for JAK3 (TR-FRET tracer competition); assay type: binding; conditions: 1.5 uM compound, 500 nM JAK3, from 1 hour through 6 hours
T1 construct: purchased Invitrogen PV3855
Protocol: The read-out for slow dissociation is the ability of the compound of interest to block binding of a high affinity fluorescent tracer molecule to the kinase active site, as detected using time-resolved fluorescence resonance energy transfer (TR-FRET). The experiment was conducted in a buffer consisting of 50 mM Hepes pH 7.5, 10 mM MgCl2, 0.01% Triton X-100, and 1 mM EGTA.
The first step of the procedure was incubation of 500 nM JAK3 (Invitrogen Cat. #PV3855) with 1.5 uM of a compound disclosed in Table 1 for 30 minutes in a volume of 10 uL. The mixture was then diluted 5-fold by mixture of 10 uL JAK3/cmpd with 40 uL buffer. A 10 uL volume of the diluted kinase/compound solution was then added to a well of a small volume 384 well plate (such as Greiner Cat. #784076). In order to probe for reversibility of the kinase-compound binding interaction, a competition solution containing both a high affinity fluorescent tracer and an antibody coupled to Europium was prepared. For JAK3, the competition solution contained 8 uM Tracer 236 (Invitrogen Cat. #PV5592), which is a proprietary high affinity ligand for JAK3 coupled to the fluorophore AlexaFluor 647. The competition solution also contained 80 nM of an Anti-GST antibody coupled to Europium which is designed to bind the GST purification tag in JAK3.
After addition of 10 uL of the competition solution to the Greiner plate, the mixture was incubated for one hour or greater to allow time for dissociation of non-covalent inhibitors and binding of the high affinity tracer. It was expected that covalent and slow dissociating inhibitors will block binding of the tracer while rapidly dissociating non-covalent inhibitors will not. Binding of the tracer to JAK3 was detected using TR-FRET between the Europium moiety of the Anti-GST antibody and the AlexaFluor 647 group of Tracer 236. Binding was evaluated using a Perkin Elmer Envision instrument (Model 2101) equipped with filters and mirrors compatible with LANCE-type TR-FRET experiments. Data were plotted at percentage of signal obtained in the absence of competitor compound. […]

JAK3 protein = target: T2, JAK3 protein (Homo sapiens, UniProt P52333); assay: Reversibility of Binding (trypsin digestion, HPLC-MS/MS)
T2 sequence (P52333 1-1124): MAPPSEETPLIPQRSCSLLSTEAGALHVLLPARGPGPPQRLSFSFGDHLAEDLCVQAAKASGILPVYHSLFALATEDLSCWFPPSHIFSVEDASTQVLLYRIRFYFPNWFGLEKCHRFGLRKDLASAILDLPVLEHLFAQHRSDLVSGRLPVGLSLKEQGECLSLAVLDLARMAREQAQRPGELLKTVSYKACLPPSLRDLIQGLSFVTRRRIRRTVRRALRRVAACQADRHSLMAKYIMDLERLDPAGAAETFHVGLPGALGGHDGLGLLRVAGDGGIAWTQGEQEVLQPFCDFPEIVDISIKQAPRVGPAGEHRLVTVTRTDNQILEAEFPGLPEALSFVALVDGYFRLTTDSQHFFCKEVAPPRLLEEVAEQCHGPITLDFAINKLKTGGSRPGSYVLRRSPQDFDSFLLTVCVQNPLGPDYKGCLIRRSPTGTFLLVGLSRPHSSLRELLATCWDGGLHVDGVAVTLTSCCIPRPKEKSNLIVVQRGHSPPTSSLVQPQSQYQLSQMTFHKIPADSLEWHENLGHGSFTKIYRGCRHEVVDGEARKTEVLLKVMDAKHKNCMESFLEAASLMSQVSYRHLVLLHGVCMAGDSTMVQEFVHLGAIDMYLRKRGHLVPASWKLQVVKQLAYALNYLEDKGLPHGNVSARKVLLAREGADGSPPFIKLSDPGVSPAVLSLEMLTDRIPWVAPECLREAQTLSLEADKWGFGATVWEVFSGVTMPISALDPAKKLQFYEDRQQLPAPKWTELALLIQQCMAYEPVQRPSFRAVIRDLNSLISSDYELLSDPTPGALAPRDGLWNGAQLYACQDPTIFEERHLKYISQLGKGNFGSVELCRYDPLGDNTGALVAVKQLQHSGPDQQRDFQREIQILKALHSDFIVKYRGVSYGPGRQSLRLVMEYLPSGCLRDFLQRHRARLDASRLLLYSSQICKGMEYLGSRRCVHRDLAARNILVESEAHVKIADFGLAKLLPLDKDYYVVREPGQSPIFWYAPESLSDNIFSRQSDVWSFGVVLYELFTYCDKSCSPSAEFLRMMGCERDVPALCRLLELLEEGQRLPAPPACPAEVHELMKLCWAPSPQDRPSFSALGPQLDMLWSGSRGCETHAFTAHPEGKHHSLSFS
Protocol: The following approach was developed to differentiate compounds that form irreversible bonds with their targets, such as acrylamide compounds, from compound that bind reversibly. Reactions were prepared with the JAK3 protein target at a higher concentration than the compound of interest. The reactions were then digested with trypsin, disrupting proper folding of the target. […] The concentration of compound in solution was assessed both preceding and following perturbation using high performance liquid chromatography (HPLC) coupled to tandem mass spectrometry.

SZ-4 CTCL cells = assay: Tumor Cell Proliferation Assay; assay type: cell-based; conditions: SZ-4, CTCL (Sézary syndrome); 100 ng/ml IL-2, 72 hr, Cell Titer-Glo
Protocol: (§1) Cells (SZ-4 CTCL cells) were plated at a density of 5000 cells/well (384 well plates). Cells were plated in DMEM culture media supplemented with 0.5% fetal bovine serum. Other tumor cells (e.g. NK-TCL, T-ALL) were plated at densities of 2000-10,000 cells/well in culture media (e.g. DMEM, RPMI), containing 1%-20% FBS, dependent on the growth requirements of the individual tumor cell line. Compounds were diluted in culture media using serial dilution yielding final concentrations with 0 (DMSO control) or concentrations ranging from 0.5 nM to 10 uM. For the CTCL cells, after 1 hr incubation, at 37° C. in 95% air, 5% CO2, cells were induced with 100 ng/ml IL-2 for 72 hr. For the other cell types, cells were incubated without further induction for 72 hr. Cell Titer-Glo reagent was then added to the cells, contents mixed for 2 min, incubated at room temperature for 10 min, then luminescence was determined using a microplate luminometer. The percent inhibition was calculated based on a DMSO control for no inhibition and plotted as a function of test compound concentration from which an IC50 value was calculated.

H78 = assay: Tumor Cell Proliferation Assay; assay type: cell-based; conditions: H78, CTCL (Sézary syndrome); 72 hr
Protocol: as §1

H9 = assay: Tumor Cell Proliferation Assay; assay type: cell-based; conditions: Homo sapiens; H9, CTCL (Sézary syndrome); 72 hr
Protocol: as §1

HH = assay: Tumor Cell Proliferation Assay; assay type: cell-based; conditions: Homo sapiens, CTCL (non MF, non Sézary syndrome), 72 hr
Protocol: as §1

SNK1 = assay: Tumor Cell Proliferation Assay; assay type: cell-based; conditions: SNK1, NK-TCL; 72 hr
Protocol: as §1

SNK6 = assay: Tumor Cell Proliferation Assay; assay type: cell-based; conditions: SNK6, NK-TCL; 72 hr
Protocol: as §1

KHG1 = assay: Tumor Cell Proliferation Assay; assay type: cell-based; conditions: KHG1, NK-TCL; 72 hr
Protocol: as §1

HANK1 = assay: Tumor Cell Proliferation Assay; assay type: cell-based; conditions: HANK1, NK-TCL; 72 hr
Protocol: as §1

MJ = assay: Tumor Cell Proliferation Assay; assay type: cell-based; conditions: CTCL (Unknown), 72 hr
Protocol: as §1

NKS1 = assay: Tumor Cell Proliferation Assay; assay type: cell-based; conditions: NKS1, NK-TCL; 72 hr
Protocol: as §1

Hut-102 = assay: Tumor Cell Proliferation Assay; assay type: cell-based; conditions: Hut-102, CTCL (Mycosis fungoides); 72 hr
Protocol: as §1

SMILES: C[C@@H]1CCN(C(=O)CC#N)C[C@@H]1N(C)c1ncnc2[nH]ccc12 [CP-690,550]
effect in collagen-induced arthritis model [1]: blocks
efficacy in psoriasis patients (psoriasis): demonstrated efficacy
effect on delayed-type hypersensitivity response (DTH) [2]: blocks
effect on mixed lymphocyte reaction (MLR) [3]: blocks

binding of Tracer 236 after pre-incubation with compound (JAK3): no increase
Compound in solution in the native state? (JAK3 protein; JAK3 at higher concentration than compound): no
Compound in solution in the denatured or digested state? (JAK3 protein; after digestion with trypsin): no
SMILES: C=CC(=O)Nc1cccc(-c2cnc3[nH]cc(C(=O)C(C)(C)C)c3n2)c1 [Compound 1, N-(3-(7-pivaloyl-5H-pyrrolo[2,3-b]pyrazin-2-yl)phenyl)acrylamide]

IC50 (SZ-4 CTCL cells): 56 nM
IC50 (H78): 150 nM
IC50 (H9): 450 nM
IC50 (HH): 2700 nM
IC50 (SNK1): 735 nM
IC50 (SNK6): 8420 nM
IC50 (KHG1): 498 nM
IC50 (HANK1): 1870 nM
IC50 (MJ): > 5000 nM
IC50 (NKS1): 109 nM
IC50 (Hut-102): 104 nM
binding of Tracer 236 after pre-incubation with compound (JAK3): no increase
SMILES: C=CC(=O)Nc1cccc(-c2cnc3[nH]cc(C(=O)NC(C)(C)C)c3n2)c1 [Compound 2, 2-(3-acrylamidophenyl)-N-(tert-butyl)-5H-pyrrolo[2,3-b]pyrazine-7-carboxamide]

binding of Tracer 236 after pre-incubation with compound (JAK3): no increase
SMILES: CN(C)CC=CC(=O)Nc1cccc(-c2cnc3[nH]cc(C(=O)NC(C)(C)C)c3n2)c1 [Compound 3, N-(tert-butyl)-2-(3-(4-(dimethylamino)but-2-enamido)phenyl)-5H-pyrrolo[2,3-b]pyrazine-7-carboxamide]
